How the values were obtained:
ZEAMX (Corn, Field) = assay: Postemergence herbicidal evaluation; format: in vivo, Zea mays; conditions: postemergence
Procedure, shortened: (§1)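 Two-week seedlings sprayed postemergence at 40 psi; formulation: 1:1 acetone/water, 0.5% TWEEN 20; application ≈0.0156–0.500 kg/ha. Greenhouse grow-out, then 0–9 visual scoring at 4–5 weeks.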

ORYSAT (Rice, Tebonnet) = assay: Postemergence herbicidal evaluation; format: in vivo, Oryza sativa, (L.) Tebonnet; conditions: postemergence
Procedure, shortened: as §1

AMBEL (Ragweed, Common) [1] = assay: Preemergence herbicidal evaluation; format: in vivo, Ambrosia artemisifolia; conditions: rated 4-5 weeks after treatment
Procedure, shortened: (§2)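 Seeds were planted in potting soil in cups, then sprayed preemergence with the test compound in aqueous acetone at about 0.0156 to 0.500 kg per hectare. Cups were kept under greenhouse conditions and visually rated 4–5 weeks after treatment on a 0–9 scale against an untreated control.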

GALAP (Galium) = assay: Preemergence herbicidal evaluation; format: in vivo, Galium aparine; conditions: rated 4-5 weeks after treatment
Procedure, shortened: as §2

CASOB (Sicklepod) = assay: Preemergence herbicidal evaluation; format: in vivo, Cassia obtusifolia; conditions: rated 4-5 weeks after treatment
Procedure, shortened: as §2

[2] = system: GLXMAW (Soybean, Williams); assay: Postemergence herbicidal evaluation; format: in vivo, Glycine max, (L.) Merr. cv Williams; conditions: postemergence
Procedure, shortened: as §1

AMBEL (Ragweed, Common) [3] = assay: Postemergence herbicidal evaluation; format: in vivo, Ambrosia artemisifolia; conditions: postemergence
Procedure, shortened: as §1

ECHCG (Barnyardgrass) = assay: Postemergence herbicidal evaluation; format: in vivo, Echinochloa crus-galli; conditions: postemergence
Procedure, shortened: as §1

[4] = system: CHEAL (Lambsquarters, Common); assay: Postemergence herbicidal evaluation; format: in vivo, Chenopodium album; conditions: postemergence
Procedure, shortened: as §1

ABUTH (Velvetleaf) = assay: Postemergence herbicidal evaluation; format: in vivo, Abutilon theophrasti; conditions: postemergence
Procedure, shortened: as §1

[5] = system: CHEAL (Lambsquarters, Common); assay: Preemergence herbicidal evaluation; format: in vivo, Chenopodium album; conditions: rated 4-5 weeks after treatment
Procedure, shortened: as §2

CYPSE (Flatsedge) = assay: Preemergence weed control under flooded paddy conditions; format: in vivo, Cyperus serotinus; conditions: rated 3-4 weeks after treatment
Procedure, shortened: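 First, seeds or propagules go into the top 0.5 cm of silt loam; next, water is held 1.5 to 3 cm over the soil; then compound (50/50 acetone/water) is pipetted into it at about 0.0313 to 0.500 kg/ha; finally plants are rated visually 0-9 after three to four weeks.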

[6] = rate 0.0156 kg/ha, rating scale 0-9
[7] = rate 0.0313 kg/ha, rating scale 0-9
[8] = rate 0.0625 kg/ha, rating scale 0-9
[9] = rate 0.1250 kg/ha, rating scale 0-9
[10] = rate 0.2500 kg/ha, rating scale 0-9

CCOC(=O)CN1C(=O)C(Cl)SC1=Nc1cc(-n2c(=O)cc(C(F)(F)F)n(C)c2=O)c(F)cc1Cl (stereo not shown) [Compound 126, Ethyl 5-chloro-2-{{2-chloro-5-[3,6-dihydro-3-methyl-2,6-dioxo-4-(trifluoromethyl)-1(2H)-pyrimidinyl]-4-fluorophenyl}imino}-4-oxo-3-thiazolidineacetate]
6.0: herbicidal rating GLXMAW ([2]; rate 0.0625 kg/ha)
0.5: herbicidal rating ORYSAT (ORYSAT (Rice, Tebonnet); rate 0.0313 kg/ha) | herbicidal rating ORYSAT (ORYSAT (Rice, Tebonnet); rate 0.0625 kg/ha)
3.0: Preemergence herbicidal rating CASOB (CASOB (Sicklepod); rate 0.5000 kg/ha)
4.0: herbicidal rating ZEAMX (ZEAMX (Corn, Field); rate 0.0156 kg/ha) | herbicidal rating ZEAMX (ZEAMX (Corn, Field); rate 0.0313 kg/ha) | Preemergence herbicidal rating AMBEL (AMBEL (Ragweed, Common) [1]; rate 0.2500 kg/ha) | herbicidal rating CHEAL ([4]; rate 0.0156 kg/ha) | herbicidal rating CHEAL ([4]; rate 0.0313 kg/ha) | herbicidal rating CHEAL ([4]; rate 0.0625 kg/ha)
0.0: herbicidal rating ORYSAT (ORYSAT (Rice, Tebonnet); rate 0.0156 kg/ha) | Preemergence herbicidal rating AMBEL (AMBEL (Ragweed, Common) [1]; rate 0.0625 kg/ha) | Preemergence herbicidal rating AMBEL (AMBEL (Ragweed, Common) [1]; rate 0.1250 kg/ha) | Preemergence herbicidal rating GALAP (GALAP (Galium); rate 0.0625 kg/ha) | Preemergence herbicidal rating GALAP (GALAP (Galium); rate 0.1250 kg/ha) | Preemergence herbicidal rating CASOB (CASOB (Sicklepod); rate 0.0625 kg/ha) | Preemergence herbicidal rating CASOB (CASOB (Sicklepod); rate 0.1250 kg/ha) | Preemergence herbicidal rating CASOB (CASOB (Sicklepod); rate 0.2500 kg/ha) | herbicidal rating ECHCG (ECHCG (Barnyardgrass); rate 0.0156 kg/ha) | herbicidal rating ECHCG (ECHCG (Barnyardgrass); rate 0.0313 kg/ha) | herbicidal rating ECHCG (ECHCG (Barnyardgrass); rate 0.0625 kg/ha) | herbicidal rating ECHCG (ECHCG (Barnyardgrass); rate 0.1250 kg/ha) | herbicidal effect rating, CYPSE (CYPSE (Flatsedge); 0.0313 kg/ha) | herbicidal effect rating, CYPSE (CYPSE (Flatsedge); 0.0625 kg/ha) | herbicidal effect rating, CYPSE (CYPSE (Flatsedge); 0.1250 kg/ha) | herbicidal effect rating, CYPSE (CYPSE (Flatsedge); 0.2500 kg/ha)
6.5: herbicidal rating ZEAMX (ZEAMX (Corn, Field); rate 0.1250 kg/ha)
1.0: herbicidal rating ORYSAT (ORYSAT (Rice, Tebonnet); rate 0.1250 kg/ha)
4.5: herbicidal rating ZEAMX (ZEAMX (Corn, Field); rate 0.0625 kg/ha)
5.5: herbicidal rating GLXMAW ([2]; rate 0.0313 kg/ha)
7.0: herbicidal rating GLXMAW ([2]; rate 0.1250 kg/ha)
9.0: Preemergence herbicidal rating GALAP (GALAP (Galium); rate 0.2500 kg/ha) | Preemergence herbicidal rating GALAP (GALAP (Galium); rate 0.5000 kg/ha) | herbicidal rating AMBEL (AMBEL (Ragweed, Common) [3]; rate 0.0313 kg/ha) | herbicidal rating AMBEL (AMBEL (Ragweed, Common) [3]; rate 0.0625 kg/ha) | herbicidal rating AMBEL (AMBEL (Ragweed, Common) [3]; rate 0.1250 kg/ha) | herbicidal rating CHEAL ([4]; rate 0.1250 kg/ha) | herbicidal rating ABUTH (ABUTH (Velvetleaf); rate 0.0313 kg/ha) | herbicidal rating ABUTH (ABUTH (Velvetleaf); rate 0.0625 kg/ha) | herbicidal rating ABUTH (ABUTH (Velvetleaf); rate 0.1250 kg/ha) | Preemergence herbicidal rating CHEAL ([5]; rate 0.0625 kg/ha) | Preemergence herbicidal rating CHEAL ([5]; rate 0.1250 kg/ha) | Preemergence herbicidal rating CHEAL ([5]; rate 0.2500 kg/ha) | Preemergence herbicidal rating CHEAL ([5]; rate 0.5000 kg/ha)
5.0: Preemergence herbicidal rating AMBEL (AMBEL (Ragweed, Common) [1]; rate 0.5000 kg/ha) | herbicidal rating GLXMAW ([2]; rate 0.0156 kg/ha) | herbicidal rating AMBEL (AMBEL (Ragweed, Common) [3]; rate 0.0156 kg/ha) | herbicidal rating ABUTH (ABUTH (Velvetleaf); rate 0.0156 kg/ha)

Cc1cccc(CN2C(=O)CSC2=Nc2cc(-n3c(=O)cc(C(F)(F)F)n(C)c3=O)c(F)cc2Cl)c1 [Compound 130, 3-{4-Chloro-2-fluoro-5-{[3-(m-methylbenzyl)-4-oxo-2-thiazolidinylidene]amino}phenyl}-1-methyl-6-(trifluoromethyl)-2,4 (1H, 3H)-pyrimidinedione]
3.5: herbicidal rating ORYSAT (ORYSAT (Rice, Tebonnet); rate 0.0625 kg/ha)
9.0: Preemergence herbicidal rating AMBEL (AMBEL (Ragweed, Common) [1]; [9]) | Preemergence herbicidal rating AMBEL (AMBEL (Ragweed, Common) [1]; [10]) | herbicidal rating AMBEL (AMBEL (Ragweed, Common) [3]; rate 0.0156 kg/ha) | herbicidal rating AMBEL (AMBEL (Ragweed, Common) [3]; rate 0.0313 kg/ha) | herbicidal rating AMBEL (AMBEL (Ragweed, Common) [3]; rate 0.0625 kg/ha) | herbicidal rating CHEAL ([4]; rate 0.0313 kg/ha) | herbicidal rating CHEAL ([4]; rate 0.0625 kg/ha) | herbicidal rating ABUTH (ABUTH (Velvetleaf); rate 0.0156 kg/ha) | herbicidal rating ABUTH (ABUTH (Velvetleaf); rate 0.0313 kg/ha) | herbicidal rating ABUTH (ABUTH (Velvetleaf); rate 0.0625 kg/ha) | Preemergence herbicidal rating CHEAL [5, 6] | Preemergence herbicidal rating CHEAL [5, 7] | Preemergence herbicidal rating CHEAL [5, 8] | Preemergence herbicidal rating CHEAL [5, 9] | Preemergence herbicidal rating CHEAL [5, 10]
2.0: Preemergence herbicidal rating GALAP (GALAP (Galium); [9]) | Preemergence herbicidal rating GALAP (GALAP (Galium); [10]) | Preemergence herbicidal rating CASOB (CASOB (Sicklepod); [8]) | herbicidal rating ECHCG (ECHCG (Barnyardgrass); rate 0.0156 kg/ha) | herbicidal rating ECHCG (ECHCG (Barnyardgrass); rate 0.0313 kg/ha)
7.0: Preemergence herbicidal rating AMBEL (AMBEL (Ragweed, Common) [1]; [8]) | herbicidal rating GLXMAW ([2]; rate 0.0313 kg/ha) | herbicidal rating CHEAL ([4]; rate 0.0156 kg/ha) | herbicidal effect rating, CYPSE (CYPSE (Flatsedge); 0.2500 kg/ha)
8.0: herbicidal rating GLXMAW ([2]; rate 0.0625 kg/ha)
3.0: herbicidal rating ORYSAT (ORYSAT (Rice, Tebonnet); rate 0.0156 kg/ha) | herbicidal rating ORYSAT (ORYSAT (Rice, Tebonnet); rate 0.0313 kg/ha) | Preemergence herbicidal rating CASOB (CASOB (Sicklepod); [10]) | herbicidal rating ECHCG (ECHCG (Barnyardgrass); rate 0.0625 kg/ha)
5.0: herbicidal rating ZEAMX (ZEAMX (Corn, Field); rate 0.0625 kg/ha) | herbicidal effect rating, CYPSE (CYPSE (Flatsedge); 0.0313 kg/ha) | herbicidal effect rating, CYPSE (CYPSE (Flatsedge); 0.0625 kg/ha)
0.0: Preemergence herbicidal rating AMBEL (AMBEL (Ragweed, Common) [1]; [6]) | Preemergence herbicidal rating GALAP (GALAP (Galium); [6]) | Preemergence herbicidal rating GALAP (GALAP (Galium); [8]) | Preemergence herbicidal rating CASOB (CASOB (Sicklepod); [6]) | herbicidal effect rating, CYPSE (CYPSE (Flatsedge); 0.1250 kg/ha)
5.5: herbicidal rating GLXMAW ([2]; rate 0.0156 kg/ha)
4.5: herbicidal rating ZEAMX (ZEAMX (Corn, Field); rate 0.0156 kg/ha) | herbicidal rating ZEAMX (ZEAMX (Corn, Field); rate 0.0313 kg/ha)
1.0: Preemergence herbicidal rating AMBEL (AMBEL (Ragweed, Common) [1]; [7]) | Preemergence herbicidal rating CASOB (CASOB (Sicklepod); [7])

Reference: patent publication US20020137929A1, “1 - (3-heterocyclylphenyl) isothiourea, -isourea, -guanidine and -amidine herbicidal agents” (Intellectual Property Department, BASF Aktiengesellschaft, priority 1998, published 2002)
